# Experimental data published in patent US12458602B2, “Realizing the nano-amorphous state of materials inside nano-porous templates” (The Chinese University of Hong Kong, priority 2021, dated 2025).
# Test: In-vitro dissolution test in deionized water
# Assay type: physicochemical
# Settings: room temperature
# Procedure: The total drug dose is about 50 mg dissolved in 1 L of deionized water at the room temperature. In order to obtain the concentration versus time plot, a series of samples (3 mL) are withdrawn at predetermined time points, and the same amount of fresh media is added back to maintain a constant volume (1 L). These withdrawn samples are filtered by 0.22 μm MCE filters, and their concentrations are then determined with a UV spectrophotometer.
row,SMILES,drug released in 6 hours [%]
1,"CC(C(=O)O)c1ccc(-c2ccccc2)c(F)c1 (centres unmarked) [Flurbiprofen crystal, Flurbiprofen]",9.5
2,"CCC(COC(=O)c1cc(OC)c(OC)c(OC)c1)(c1ccccc1)N(C)C (centres unmarked) [Trimebutine crystal, Trimebutine]",1.18
